Converted amounts (≈) assume the structure as drawn.
Assays:
Format in all cases: functional
Pasteurella multocida = test: In vitro antibacterial activity against Pasteurella multocida 59A0067
Escherichia coli = test: In vitro antibacterial activity against Escherichia coli 51A0150
Staphylococcus aureus = test: In vitro antibacterial activity against Staphylococcus aureus 01A0758

| SMILES | MIC (Pasteurella multocida) [µg/mL] | MIC (Escherichia coli) [µg/mL] | MIC (Staphylococcus aureus) [µg/mL] |
| --- | --- | --- | --- |
| CC[C@H]1OC(=O)[C@H](C)[C@H]2OC3(CCN(c4ccc([N+](=O)[O-])c(N)n4)CC3)O[C@](C)(C[C@@H](C)CN[C@H](C)[C@@H](O)[C@]1(C)O)[C@H](O[C@@H]1O[C@H](C)CC(N(C)C)[C@H]1O)[C@H]2C (stereo not given in full) | 0.1 (≈ 0.126 µM) | 3.13 (≈ 3.94 µM) | 1.56 (≈ 1.96 µM) |
| CC[C@H]1OC(=O)[C@H](C)[C@H]2OC3(CCN(c4ncc(C(=O)OCc5ccccc5)c(C(F)(F)F)n4)CC3)O[C@](C)(C[C@@H](C)CN[C@H](C)[C@@H](O)[C@]1(C)O)[C@H](O[C@@H]1O[C@H](C)CC(N(C)C)[C@H]1O)[C@H]2C (stereo not given in full) | > 50 | > 50 | 0.78 (≈ 0.831 µM) |
| CC[C@H]1OC(=O)[C@H](C)[C@H]2OC3(CCN(c4nc5ccccc5[nH]4)CC3)O[C@](C)(C[C@@H](C)CN(C)[C@H](C)[C@@H](O)[C@]1(C)O)[C@H](O[C@@H]1O[C@H](C)CC(N(C)C)[C@H]1O)[C@H]2C (stereo not given in full) | 0.1 (≈ 0.127 µM) | 1.56 (≈ 1.98 µM) | 3.13 (≈ 3.97 µM) |
| CC[C@H]1OC(=O)[C@H](C)[C@H]2OC3(CCN(c4ccc(C(=O)OCc5ccccc5)cc4)CC3)O[C@](C)(C[C@@H](C)CN(C)[C@H](C)[C@@H](O)[C@]1(C)O)[C@H](O[C@@H]1O[C@H](C)CC(N(C)C)[C@H]1O)[C@H]2C (stereo not given in full) | 0.39 (≈ 0.442 µM) | 3.13 (≈ 3.55 µM) | 3.13 (≈ 3.55 µM) |
| CC[C@H]1OC(=O)[C@H](C)C2OC3(CCNCC3)O[C@](C)(C[C@@H](C)CN(C)[C@H](C)[C@@H](O)[C@]1(C)O)[C@H](O[C@@H]1O[C@H](C)C[C@H](N(C)C)[C@H]1O)[C@H]2C | < 0.05 | 0.39 (≈ 0.58 µM) | 6.25 (≈ 9.3 µM) |
| CC[C@H]1OC(=O)[C@H](C)[C@H]2OC3(CCN(c4ccc([N+](=O)[O-])cc4)CC3)O[C@](C)(C[C@@H](C)CN(C)[C@H](C)[C@@H](O)[C@]1(C)O)[C@H](O[C@@H]1O[C@H](C)CC(N(C)C)[C@H]1O)[C@H]2C (stereo not given in full) | 0.39 (≈ 0.492 µM) | 6.25 (≈ 7.88 µM) | 1.56 (≈ 1.97 µM) |
| CC[C@H]1OC(=O)[C@H](C)[C@H]2OC3(CCN(c4cc(OC)nc(OC)n4)CC3)O[C@](C)(C[C@@H](C)CN[C@H](C)[C@@H](O)[C@]1(C)O)[C@H](O[C@@H]1O[C@H](C)CC(N(C)C)[C@H]1O)[C@H]2C (stereo not given in full) | 0.2 (≈ 0.251 µM) | 3.13 (≈ 3.93 µM) | 1.56 (≈ 1.96 µM) |
| CC[C@H]1OC(=O)[C@H](C)[C@H]2OC3(CCN(c4ncccc4[N+](=O)[O-])CC3)O[C@](C)(C[C@@H](C)CN[C@H](C)[C@@H](O)[C@]1(C)O)[C@H](O[C@@H]1O[C@H](C)CC(N(C)C)[C@H]1O)[C@H]2C (stereo not given in full) | 0.2 (≈ 0.256 µM) | 6.25 (≈ 8.01 µM) | 0.78 (≈ 1 µM) |
| CC[C@H]1OC(=O)[C@H](C)[C@H]2OC3(CCN(c4nccs4)CC3)O[C@](C)(C[C@@H](C)CN(C)[C@H](C)[C@@H](O)[C@]1(C)O)[C@H](O[C@@H]1O[C@H](C)CC(N(C)C)[C@H]1O)[C@H]2C (stereo not given in full) | 0.39 (≈ 0.517 µM) | 3.13 (≈ 4.15 µM) | 3.13 (≈ 4.15 µM) |
| CC[C@H]1OC(=O)[C@H](C)[C@H]2OC3(CCN(c4nc(C)ccc4C#N)CC3)O[C@](C)(C[C@@H](C)CN[C@H](C)[C@@H](O)[C@]1(C)O)[C@H](O[C@@H]1O[C@H](C)CC(N(C)C)[C@H]1O)[C@H]2C (stereo not given in full) | 0.78 (≈ 1.01 µM) | 6.25 (≈ 8.07 µM) | 0.78 (≈ 1.01 µM) |
| CC[C@H]1OC(=O)[C@H](C)[C@H]2OC3(CCN(c4ccc([N+](=O)[O-])cn4)CC3)O[C@](C)(C[C@@H](C)CN(C)[C@H](C)[C@@H](O)[C@]1(C)O)[C@H](O[C@@H]1O[C@H](C)CC(N(C)C)[C@H]1O)[C@H]2C (stereo not given in full) | 0.39 (≈ 0.491 µM) | 6.25 (≈ 7.87 µM) | 3.13 (≈ 3.94 µM) |
| CC[C@H]1OC(=O)[C@H](C)[C@H]2OC3(CCN(c4ccc(C#N)cn4)CC3)O[C@](C)(C[C@@H](C)CN[C@H](C)[C@@H](O)[C@]1(C)O)[C@H](O[C@@H]1O[C@H](C)CC(N(C)C)[C@H]1O)[C@H]2C (stereo not given in full) | 0.2 (≈ 0.263 µM) | 6.25 (≈ 8.22 µM) | 1.56 (≈ 2.05 µM) |
| CC[C@H]1OC(=O)[C@H](C)[C@H]2OC3(CCN(c4ccc(C(=O)N(C)c5ccncc5)cc4F)CC3)O[C@](C)(C[C@@H](C)CN(C)[C@H](C)[C@@H](O)[C@]1(C)O)[C@H](O[C@@H]1O[C@H](C)CC(N(C)C)[C@H]1O)[C@H]2C (stereo not given in full) | 0.2 (≈ 0.222 µM) | 1.56 (≈ 1.73 µM) | 3.13 (≈ 3.48 µM) |
| CC[C@H]1OC(=O)[C@H](C)[C@H]2OC3(CCN(c4ccc(C(=O)OCc5ccccc5)c(C(F)(F)F)c4)CC3)O[C@](C)(C[C@@H](C)CN[C@H](C)[C@@H](O)[C@]1(C)O)[C@H](O[C@@H]1O[C@H](C)CC(N(C)C)[C@H]1O)[C@H]2C (stereo not given in full) | 6.25 (≈ 6.68 µM) | > 50 | 0.78 (≈ 0.833 µM) |
| CC[C@H]1OC(=O)[C@H](C)[C@H]2OC3(CCN(c4ncc(C(=O)NCc5ccncc5)cn4)CC3)O[C@](C)(C[C@@H](C)CN(C)[C@H](C)[C@@H](O)[C@]1(C)O)[C@H](O[C@@H]1O[C@H](C)CC(N(C)C)[C@H]1O)[C@H]2C (stereo not given in full) | > 50 | > 50 | 3.52 (≈ 3.98 µM) |

Source: ChEMBL document CHEMBL1136696, “Azalide 3,6-ketals: antibacterial activity and structure-activity relationships of aryl and hetero aryl substituted analogues” (Bioorg Med Chem Lett, 2003)
